According to the supplement of paper PMC11208160:

Experiment: recombinant UMI read abundance after kanamycin selection (control-corrected) (log10(CPM+1)); higher = more efficient recombination; extreme values may be limits of the assay; sequences stand for … in AGTGCAGAGAAAATCGGCCAGTTTTCTCTGCCTGCAGTCCGCATGCCGTGGGACCCCTTGGGTTCTAACCTGTTGCCTAGATTTATGCAGCGGACTGCCTTTCTCCCAAAGTGATAAACCGG…AGGTTGGTTTCACT; site = the 11-nt donor
In short: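 After plating on IPTG (0.07 mM) plus kanamycin, or unselected, in two replicates, recombinant UMIs were PCR-amplified across the donor–target junction and sequenced. The cells were Escherichia coli co-electroporated with a UMI-tagged donor and donor-binding-loop pair library and a target plasmid with a fixed target and T7-inducible IS621 bridge recombinase. Values are log10(CPM+1), with CPM averaged over replicates and scaled by control-derived factors.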
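Also: IS621 bridge recombinase in Escherichia coli cells against a fixed T5 target plasmid.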

| Sequence | recombinant UMI read abundance (log10) |
| --- | --- |
| CTTTTGGCATGGACCGGTTTTCCCGGTAATCCGTATTTGCT (site CGTTTGGCTAG) | 0.00381 |
| CTTTTGGCATGGACCGGTTTTCCCGGTAATCCGTATTTGCT (site CTTTTGGCTAG) | 0 |
| GAAAACGCATGGACCGGTTTTCCCGGTAATCCGTATTTGAA (site GAAAACGCTTT) | 2.16 |
| GAAAAGTCATGGACCGGTTTTCCCGGTAATCCGTATTTGAA (site GAAAAGTCTTT) | 2.84 |
| GAAAATTCATGGACCGGTTTTCCCGGTAATCCGTATTTGTT (site GAAAATTCTAA) | 0.97 |
| GAAAATTCATGGACCGGTTTTCCCGGTAATCCGTATTTGTT (site GAACATTCTAA) | 0 |
| GAAAATTCATGGACCGGTTTTCCCGGTAATCCGTATTTGTT (site GAAGATTCTAA) | 0.507 |
| GAAAATTCATGGACCGGTTTTCCCGGTAATCCGTATTTGTT (site GAATATTCTAA) | 1.79 |
| GAAACACCATGGACCGGTTTTCCCGGTAATCCGTATTTGTT (site GAAACACCTAA) | 0.0036 |
| GAAACCTCATGGACCGGTTTTCCCGGTAATCCGTATTTGTG (site GAAACCTCTCA) | 0.406 |
| GAAACGTCATGGACCGGTTTTCCCGGTAATCCGTATTTGGC (site GAAACGTCTGC) | 2.01 |
| GAAAGCTCATGGACCGGTTTTCCCGGTAATCCGTATTTGCG (site GAAAGCTCTCG) | 2.77 |
| GAAAGGCCATGGACCGGTTTTCCCGGTAATCCGTATTTGCA (site GAAAGGCCTTG) | 0 |
| GAAAGGCCATGGACCGGTTTTCCCGGTAATCCGTATTTGCA (site GAACGGCCTTG) | 0 |
| GAAAGGCCATGGACCGGTTTTCCCGGTAATCCGTATTTGCA (site GAAGGGCCTTG) | 0 |
| GAAAGGCCATGGACCGGTTTTCCCGGTAATCCGTATTTGCA (site GAATGGCCTTG) | 0 |
| GAAAGTCCATGGACCGGTTTTCCCGGTAATCCGTATTTGTA (site AAAAGTCCTTA) | 0 |
| GAAAGTCCATGGACCGGTTTTCCCGGTAATCCGTATTTGTA (site CAAAGTCCTTA) | 0.821 |
| GAAAGTCCATGGACCGGTTTTCCCGGTAATCCGTATTTGTA (site GAAAGTCCTTA) | 0.0817 |
| GAAAGTCCATGGACCGGTTTTCCCGGTAATCCGTATTTGTA (site TAAAGTCCTTA) | 1.01 |
| GAACGGACATGGACCGGTTTTCCCGGTAATCCGTATTTGAA (site GAACGGACTTT) | 0.965 |
| GAACTATCATGGACCGGTTTTCCCGGTAATCCGTATTTGCC (site GAACTATCTGG) | 1.78 |
| GAACTCACATGGACCGGTTTTCCCGGTAATCCGTATTTGAT (site GAACTCACTAT) | 2.08 |
| GAACTCACATGGACCGGTTTTCCCGGTAATCCGTATTTGAT (site GACCTCACTAT) | 0.375 |
| GAACTCACATGGACCGGTTTTCCCGGTAATCCGTATTTGAT (site GAGCTCACTAT) | 0 |

| Sequence | recombinant UMI read abundance (log10) |
| --- | --- |
| GAACTCACATGGACCGGTTTTCCCGGTAATCCGTATTTGAT (site GATCTCACTAT) | 0.263 |
| GAAGAAGCATGGACCGGTTTTCCCGGTAATCCGTATTTGAG (site GAAGAAGCTCT) | 2.53 |
| GAAGAATCATGGACCGGTTTTCCCGGTAATCCGTATTTGTT (site GAAGAATCTAA) | 3.34 |
| GAAGAATCATGGACCGGTTTTCCCGGTAATCCGTATTTGTT (site GAAGACTCTAA) | 1.41 |
| GAAGAATCATGGACCGGTTTTCCCGGTAATCCGTATTTGTT (site GAAGAGTCTAA) | 1.59 |
| GAAGAATCATGGACCGGTTTTCCCGGTAATCCGTATTTGTT (site GAAGATTCTAA) | 0 |
| GAAGACCCATGGACCGGTTTTCCCGGTAATCCGTATTTGCG (site GAAGACCCTCG) | 0.691 |
| GAAGAGGCATGGACCGGTTTTCCCGGTAATCCGTATTTGTA (site GAAGAGGCTTA) | 1.64 |
| GAAGATCCATGGACCGGTTTTCCCGGTAATCCGTATTTGTT (site GAAGATACTAA) | 0.0059 |
| GAAGATCCATGGACCGGTTTTCCCGGTAATCCGTATTTGTT (site GAAGATCCTAA) | 1.25 |
| GAAGATCCATGGACCGGTTTTCCCGGTAATCCGTATTTGTT (site GAAGATGCTAA) | 0.00882 |
| GAAGATCCATGGACCGGTTTTCCCGGTAATCCGTATTTGTT (site GAAGATTCTAA) | 0.0204 |
| GAAGATTCATGGACCGGTTTTCCCGGTAATCCGTATTTGAT (site GAAGATTCTAA) | 0.773 |
| GAAGATTCATGGACCGGTTTTCCCGGTAATCCGTATTTGAT (site GAAGATTCTAC) | 0.00538 |
| GAAGATTCATGGACCGGTTTTCCCGGTAATCCGTATTTGAT (site GAAGATTCTAG) | 0 |
| GAAGATTCATGGACCGGTTTTCCCGGTAATCCGTATTTGAT (site GAAGATTCTAT) | 2.48 |
| GAAGATTCATGGACCGGTTTTCCCGGTAATCCGTATTTGTG (site GAAGATTCTAA) | 1.55 |
| GAAGATTCATGGACCGGTTTTCCCGGTAATCCGTATTTGTG (site GAAGATTCTCA) | 2.81 |
| GAAGATTCATGGACCGGTTTTCCCGGTAATCCGTATTTGTG (site GAAGATTCTGA) | 0 |
| GAAGATTCATGGACCGGTTTTCCCGGTAATCCGTATTTGTG (site GAAGATTCTTA) | 1.24 |
| GAAGGACCATGGACCGGTTTTCCCGGTAATCCGTATTTGCG (site GAAGGACCTCG) | 0 |
| GAAGGGACATGGACCGGTTTTCCCGGTAATCCGTATTTGCA (site GAAGGGACTTG) | 2.41 |
| GAAGGTGCATGGACCGGTTTTCCCGGTAATCCGTATTTGAA (site GAAGGTGCTTT) | 2.08 |
| GAAGTCTCATGGACCGGTTTTCCCGGTAATCCGTATTTGGT (site GAAGTCTCTAC) | 2.53 |
| GAATACACATGGACCGGTTTTCCCGGTAATCCGTATTTGCG (site GAATACACTCG) | 2.66 |

| Sequence | recombinant UMI read abundance (log10) |
| --- | --- |
| GAATACTCATGGACCGGTTTTCCCGGTAATCCGTATTTGGA (site GAATACTCTTC) | 2.53 |
| GAATAGACATGGACCGGTTTTCCCGGTAATCCGTATTTGCC (site GAATAGACTGG) | 2.33 |
| GAATAGACATGGACCGGTTTTCCCGGTAATCCGTATTTGCC (site GCATAGACTGG) | 1.73 |
| GAATAGACATGGACCGGTTTTCCCGGTAATCCGTATTTGCC (site GGATAGACTGG) | 1.44 |
| GAATAGACATGGACCGGTTTTCCCGGTAATCCGTATTTGCC (site GTATAGACTGG) | 2.39 |
| GAATAGTCATGGACCGGTTTTCCCGGTAATCCGTATTTGGG (site GAATAGTCTCC) | 1.13 |
| GAATGAACATGGACCGGTTTTCCCGGTAATCCGTATTTGGT (site GAATGAACTAC) | 1.55 |
| GAATGGCCATGGACCGGTTTTCCCGGTAATCCGTATTTGCT (site GAATGGCCTAG) | 0.0235 |
| GAATGGCCATGGACCGGTTTTCCCGGTAATCCGTATTTGCT (site GAATGGCCTCG) | 0.0255 |
| GAATGGCCATGGACCGGTTTTCCCGGTAATCCGTATTTGCT (site GAATGGCCTGG) | 0 |
| GAATGGCCATGGACCGGTTTTCCCGGTAATCCGTATTTGCT (site GAATGGCCTTG) | 0 |
| GAATTCGCATGGACCGGTTTTCCCGGTAATCCGTATTTGCT (site GAATTCGCTAG) | 2.87 |
| GACAAAACATGGACCGGTTTTCCCGGTAATCCGTATTTGCG (site GACAAAACTCG) | 1.5 |
| GACAAAACATGGACCGGTTTTCCCGGTAATCCGTATTTGGC (site GACAAAACTGC) | 0 |
| GACAAACCATGGACCGGTTTTCCCGGTAATCCGTATTTGGG (site GACAAACCTAC) | 0.0248 |
| GACAAACCATGGACCGGTTTTCCCGGTAATCCGTATTTGGG (site GACAAACCTCC) | 0 |
| GACAAACCATGGACCGGTTTTCCCGGTAATCCGTATTTGGG (site GACAAACCTGC) | 0 |
| GACAAACCATGGACCGGTTTTCCCGGTAATCCGTATTTGGG (site GACAAACCTTC) | 0 |
| GACAATCCATGGACCGGTTTTCCCGGTAATCCGTATTTGAA (site GACAATCCTTT) | 0.601 |
| GACAATCCATGGACCGGTTTTCCCGGTAATCCGTATTTGAA (site GCCAATCCTTT) | 0 |
| GACAATCCATGGACCGGTTTTCCCGGTAATCCGTATTTGAA (site GGCAATCCTTT) | 0.0165 |
| GACAATCCATGGACCGGTTTTCCCGGTAATCCGTATTTGAA (site GTCAATCCTTT) | 0.0122 |
| GACACAGCATGGACCGGTTTTCCCGGTAATCCGTATTTGAC (site GACACAGCTGT) | 2.44 |
| GACACGTCATGGACCGGTTTTCCCGGTAATCCGTATTTGCC (site GACACGTCTGG) | 2.45 |
| GACAGCTCATGGACCGGTTTTCCCGGTAATCCGTATTTGGT (site GACAGCTCTAC) | 1.68 |
